Among the test systems are IGROV1 ovarian; HOP-92 NSCLC; MDA-MB-231 breast; DU-145 prostate; SN12C renal; RXF 393 renal; A549 NSCLC; ACHN renal; NCI-H226 lung; SF-295 CNS.
Assay in all cases: NCI anticancer screen, dose series, 48 h

Where “and” joins values, the source holds several entries; their conditions need not be identical. Equal values may be shown once.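 Test compounds were applied to cells in 96-well plates for 48 hours at 5 doses. GI50 is the concentration that inhibits growth by half. The concentration for full growth arrest is given as TGI.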

This passage reports TGI and GI50 results from PubChem BioAssay (NCI).

On to `CCN(Cc1cc(Cl)cc(C)c1O)Cc1c(O)ccc2ccccc12`, for which the TGI in the test on IGROV1 ovarian stood at 31.1 µM; with HOP-92 NSCLC, 26.2 µM; with MDA-MB-231 breast, 35.4 µM; in the test on DU-145 prostate it was 34.7 µM; in the test on SN12C renal, 37 µM; in the test on RXF 393 renal, 31.2 µM. Also, the TGI with A549 NSCLC was found to be 38 µM; in the test with ACHN renal, 31.5 µM; in the test with NCI-H226 lung it was 41 µM; with SF-295 CNS, 31.3 µM.

For `O=C(O)CCCN1C(=O)/C(=C/C(Cl)=C/c2ccccc2)SC1=S`, the GI50 in the test on IGROV1 ovarian was 2.07 µM; in the test on HOP-92 NSCLC it was 3.17 µM; with MDA-MB-231 breast, 3.17 µM; with DU-145 prostate it was 1.79 µM; in the test with SN12C renal, 2.05 µM; in the test on RXF 393 renal it was 1.36 µM. In addition, the GI50 in the test on A549 NSCLC is 3.02 µM; in the test on ACHN renal, 1.2 µM; with NCI-H226 lung, 2.98 µM; in the test on SF-295 CNS it was 2.57 µM. For the same compound, the TGI came to 6.04 µM in the test on IGROV1 ovarian; 9.78 µM with HOP-92 NSCLC; 10.7 µM in the test on MDA-MB-231 breast; 4.39 µM in the test on DU-145 prostate; 6.79 µM in the test on SN12C renal; 2.78 µM with RXF 393 renal. Besides, the TGI in the test on A549 NSCLC is 11.9 µM; in the test with ACHN renal, 4.4 µM; with NCI-H226 lung, 18.4 µM; in the test on SF-295 CNS, 7.16 µM.

For the compound `O=C(CCN1CCCC1)Nc1ccc2c(Nc3ccc(F)cc3)c3ccccc3nc2c1`, the GI50 is 1.03 µM in the test with IGROV1 ovarian; 1.18 µM in the test on HOP-92 NSCLC; 1.48 µM with MDA-MB-231 breast; 0.513 µM in the test with DU-145 prostate; 0.523 µM in the test on SN12C renal; 1.23 µM in the test on RXF 393 renal. In addition, the GI50 in the test with A549 NSCLC is 0.424 µM; in the test with ACHN renal it was 0.526 µM; in the test with NCI-H226 lung it was 1.41 µM; in the test with SF-295 CNS it was 1.05 µM. Besides, the TGI in the test with IGROV1 ovarian was 3.27 µM; in the test with HOP-92 NSCLC, 2.68 µM; with MDA-MB-231 breast, 3.34 µM; with DU-145 prostate, 2.03 µM; in the test with SN12C renal, 2.43 µM; in the test on RXF 393 renal, 2.64 µM. Further, the TGI in the test with A549 NSCLC came to 3.62 µM; in the test with ACHN renal, 1.98 µM; in the test with NCI-H226 lung, 3.21 µM; in the test with SF-295 CNS, 2.32 µM.

Turning to `O=CNC(Cc1cnc[nH]1)C(=O)O` (stereo not drawn), the TGI with IGROV1 ovarian, in the test with HOP-92 NSCLC, in the test on MDA-MB-231 breast, in the test on DU-145 prostate, with SN12C renal and with RXF 393 renal was greater than 100 µM throughout. Further, the TGI in the test on A549 NSCLC, in the test on ACHN renal, in the test on NCI-H226 lung and in the test with SF-295 CNS was greater than 100 µM throughout.

In the case of `COc1ccc(C2=C(c3ccc(OC)cc3)C(=O)OC2)cc1`, the GI50 is 5.03 µM with IGROV1 ovarian; 7.45 µM in the test with HOP-92 NSCLC; 5.15 µM with MDA-MB-231 breast; 2.38 µM in the test on DU-145 prostate; 7.68 µM with SN12C renal; 1.05 µM in the test on RXF 393 renal. Besides, the GI50 was 2.57 µM with A549 NSCLC, 2.72 µM with ACHN renal, 3.2 µM with NCI-H226 lung and 0.549 µM in the test with SF-295 CNS. For the same compound, the TGI in the test on IGROV1 ovarian was greater than 100 µM; in the test on HOP-92 NSCLC, 51.9 µM; with MDA-MB-231 breast, greater than 39.3 µM; in the test with DU-145 prostate, greater than 46.6 µM; with SN12C renal it was 42.2 µM; with A549 NSCLC, greater than 100 µM. For the same compound, the TGI amounted to 23.4 µM with ACHN renal and 31.4 µM with NCI-H226 lung.

Turning to `O=C1c2ccccc2C(=O)N1c1ccc(Cc2ccc(N3C(=O)c4ccccc4C3=O)cc2)cc1`, the TGI in the test with IGROV1 ovarian, in the test with HOP-92 NSCLC, in the test on MDA-MB-231 breast, in the test on DU-145 prostate, with SN12C renal and in the test with RXF 393 renal was greater than 100 µM throughout. The TGI with A549 NSCLC, in the test with ACHN renal, in the test with NCI-H226 lung and with SF-295 CNS was greater than 100 µM in each case.

Regarding `CN(C)S(=O)(=O)c1cccc(C(=O)Nc2nc(-c3ccc(F)c(F)c3)cs2)c1`, the GI50 is 28 µM with IGROV1 ovarian; 9.41 µM in the test with HOP-92 NSCLC; 20.6 µM in the test on MDA-MB-231 breast; 25.9 µM in the test on DU-145 prostate; 25.9 µM in the test on SN12C renal; 12.4 µM with RXF 393 renal. For the same compound, the GI50 is 13.2 µM in the test on A549 NSCLC, 10.5 µM in the test with ACHN renal, 9.32 µM in the test on NCI-H226 lung and 2.58 µM in the test on SF-295 CNS. In addition, the TGI was greater than 96.4 µM in the test with IGROV1 ovarian; greater than 74.3 µM with HOP-92 NSCLC; greater than 100 µM with MDA-MB-231 breast; greater than 100 µM in the test on DU-145 prostate; greater than 100 µM in the test on SN12C renal; greater than 81.5 µM in the test with RXF 393 renal. Moreover, the TGI with A549 NSCLC is greater than 100 µM; with ACHN renal, greater than 100 µM; in the test on NCI-H226 lung, 98.3 µM; in the test with SF-295 CNS, 26.4 µM.

In the case of `CCc1nc(N)nc(N)c1C#CC(C)c1ccc(-c2ccncc2)cc1Cl` (stereo not drawn), the GI50 in the test on IGROV1 ovarian is < 0.005 µM and 0.0323 µM; with HOP-92 NSCLC, 0.109 µM and 0.547 µM; in the test with MDA-MB-231 breast it was 0.555 µM and 0.511 µM; in the test on DU-145 prostate, 0.0242 µM and 0.0658 µM; in the test with SN12C renal it was 0.0189 µM and 0.148 µM; in the test with RXF 393 renal, 0.141 µM and 0.312 µM. Also, the GI50 in the test with A549 NSCLC is less than 0.005 µM; in the test on ACHN renal, 0.00775 µM and 0.0304 µM; in the test with NCI-H226 lung, 0.264 µM and 0.86 µM; with SF-295 CNS it was 0.00508 µM and 0.0141 µM. The TGI is 6.71 µM and 19.1 µM with IGROV1 ovarian; 1.56 µM and 6.36 µM in the test with HOP-92 NSCLC; 7.11 µM and 19.8 µM in the test on MDA-MB-231 breast; 5.01 µM and 13.7 µM in the test on DU-145 prostate; 5.67 µM and 17.2 µM in the test with SN12C renal; 2.12 µM and 7.44 µM in the test on RXF 393 renal. For the same compound, the TGI in the test on A549 NSCLC is 2 µM and 11.4 µM; with ACHN renal, 4.57 µM and 13.7 µM; in the test on NCI-H226 lung, 6.56 µM and 28.3 µM; with SF-295 CNS, 0.809 µM and 4.24 µM.

As to `Cc1cc(NC(=O)NCCOc2ccc(N3C(N)=NC(N)=NC3(C)C)cc2Cl)ccc1S(=O)(=O)F`, the GI50 was 0.545 µM in the test on IGROV1 ovarian; 5.07 µM in the test with HOP-92 NSCLC; 6.11 µM with MDA-MB-231 breast; 2.53 µM in the test on DU-145 prostate; 1.85 µM in the test with SN12C renal; 2.05 µM in the test with RXF 393 renal. The GI50 in the test with A549 NSCLC was 1.4 µM; with ACHN renal, 25 µM; with NCI-H226 lung, 8.57 µM; in the test with SF-295 CNS it was 5.16 µM. Moreover, the TGI with IGROV1 ovarian was greater than 100 µM; with HOP-92 NSCLC, 22.2 µM; with MDA-MB-231 breast, greater than 77.9 µM; with DU-145 prostate, greater than 100 µM; in the test with SN12C renal, greater than 100 µM; in the test on RXF 393 renal, greater than 100 µM. In addition, the TGI was greater than 68.3 µM in the test with A549 NSCLC, greater than 100 µM in the test on ACHN renal, greater than 100 µM in the test on NCI-H226 lung and greater than 85.1 µM in the test with SF-295 CNS.

Regarding `CN1CCN(C2=C(Cl)C(=O)c3ccccc3C2=O)CC1`, the GI50 is 1.88 µM in the test on IGROV1 ovarian; 1.52 µM in the test on HOP-92 NSCLC; 1.84 µM in the test with MDA-MB-231 breast; 1.74 µM in the test with DU-145 prostate; 1.61 µM with SN12C renal; 1.59 µM with RXF 393 renal. In addition, the GI50 in the test on A549 NSCLC is 3.42 µM; in the test with ACHN renal, 1.57 µM; in the test on NCI-H226 lung, 3.31 µM; in the test with SF-295 CNS, 4.8 µM. Moreover, the TGI came out at 4.32 µM in the test on IGROV1 ovarian; 3.07 µM in the test with HOP-92 NSCLC; 3.99 µM in the test with MDA-MB-231 breast; 3.11 µM in the test on DU-145 prostate; 3.08 µM with SN12C renal; 2.95 µM in the test on RXF 393 renal. Also, the TGI in the test with A549 NSCLC is 11.2 µM; in the test on ACHN renal, 2.94 µM; in the test with NCI-H226 lung it was 10.4 µM; in the test on SF-295 CNS, 15.9 µM.

Take `COc1ccc(C2=Nn3c(nnc3-c3ccc(F)c(Cl)c3)SC2)cc1`: the GI50 is greater than 100 µM in the test on IGROV1 ovarian; 18.1 µM in the test on HOP-92 NSCLC; 29.5 µM with MDA-MB-231 breast; greater than 100 µM with DU-145 prostate; 5.53 µM in the test on SN12C renal; greater than 100 µM in the test on RXF 393 renal. The GI50 in the test on A549 NSCLC, with ACHN renal, in the test on NCI-H226 lung and with SF-295 CNS was greater than 100 µM in each case. Further, the TGI is greater than 100 µM in the test on IGROV1 ovarian; 56.7 µM in the test with HOP-92 NSCLC; greater than 100 µM in the test on MDA-MB-231 breast; greater than 100 µM in the test with DU-145 prostate; greater than 100 µM with SN12C renal; greater than 100 µM in the test with RXF 393 renal. Further, the TGI with A549 NSCLC, with ACHN renal, in the test on NCI-H226 lung and with SF-295 CNS was greater than 100 µM throughout.

For `Nc1nc(N)nc(CCCCc2nc(N)nc(N)n2)n1`, the TGI with IGROV1 ovarian, in the test with HOP-92 NSCLC, in the test with MDA-MB-231 breast, with DU-145 prostate, with SN12C renal and in the test on RXF 393 renal was greater than 100 µM in each case. Moreover, the TGI in the test on A549 NSCLC, in the test with ACHN renal, in the test with NCI-H226 lung and in the test with SF-295 CNS was greater than 100 µM each time.

For `CC(NCCN(C)C)C1CCC2C3CCc4cc(O)ccc4C3CCC12C` (stereo not drawn), the TGI in the test on IGROV1 ovarian was 17.2 µM; in the test with HOP-92 NSCLC, 13.1 µM; in the test on MDA-MB-231 breast, 4.42 µM; in the test with DU-145 prostate, 18.6 µM; in the test on SN12C renal, 4.42 µM; in the test with RXF 393 renal it was 3.69 µM. The TGI in the test on A549 NSCLC was determined as 13.6 µM; with ACHN renal it was 3.99 µM; in the test with NCI-H226 lung, 34 µM; with SF-295 CNS, 6.72 µM.
